Like-named read-outs stand apart in the source and are kept apart here.
Key:
[1] = tested on: MutuDC1940 cells; experiment: Transfection efficiency of mCherry mRNA LNPs in murine dendritic cells (flow cytometry); type: cell-based; conditions: for mRNA endosomal escape and translation / mRNA transfection: MutuDC1940 cells, mCherry mRNA LNPs; for transfection activity when incorporated into LNPs: murine dendritic cells (Example 8)
Protocol: • 1. MutuDC1940 cells (Applied Biological Materials, T0528) were grown according to supplier's instructions in T75 flasks. They were plated at 180,000 cells/well into 24-well plate one day prior to transfection. • 2. LNPs were added in triplicate to each well at the desired mRNA concentration (e.g. 1 μg/mL) in 1 mL media and after 24 h the cells were washed once with DPBS (VWR 02-0119-1000). • 3. 0.2 mL of DPBS (plus 5 mM EDTA, pH 7.4) was then added to facilitate detachment. • 4. The cells were placed at 37° C. for 3 min, until detached. • 5. 0.5 ml DPBS added to each well and the liquid transferred to a flow cytometry tube (Falcon 5 mL #352054). • 6. The tube was centrifuged at 1100 rpm for 3-5 min and the liquid poured off. • 7. 100 μL of Zombie Violet (Biolegend) (diluted 1:500 in PBS) was added to each tube. • 8. The tubes were gently tapped to resuspend cells and placed in the dark for 15 min at RT. • 9. To the cells 0.5 mL of (paraformaldehyde 4% in PBS:DPBS 1:1) was added and the cells flicked gently to resuspend and put on ice for 30 min. Another 2 ml PBS was added. • 10. The cells were pelleted as above and resuspended in 0.5 mL DPBS with 5% BSA and placed in the fridge until needed.
Cells suspensions were analyzed by an Attune NxT flow cytometer using the VL1 and YL2 for live/dead and mCherry fluorescence signals respectively. Gating analysis was performed on FloJo software.

[2] = tested on: human dendritic cells; experiment: Transfection efficiency of mCherry mRNA LNPs in human dendritic cells (flow cytometry); conditions: human dendritic cells (Example 9)
Protocol: Four days prior to transfection, monocytes were isolated using CD14 isolation kit (StemCell) from PBMCs of healthy donors. […] The monocytes were cultured with IL-4 (R&D 1000 IU/mL) and GM-CSF (R&D, 800 IU/mL) in a 6 well dish at 1×10^6 cells/mL at 37° C., 5% CO2. After 4 days the immature DCs were harvested and seeded in a 96 well round bottom plate at 50,000 cells/well. LNPs were thawed by placing the vials in a 37° C. water bath for 30 seconds, or until the sample had almost fully melted. The vials were immediately placed on ice until use. The LNPs were added to final concentrations of 1 μg/ml and 0.1 μg/mL mRNA. For 1 μg/mL treatment, LNPs were added directly to each well then wells were mixed by pipetting. For 0.1 μg/mL treatment, LNPs were diluted 1:10 in complete media then added to each well and mixed by pipetting. After 4 h a maturation cytokine cocktail was added directly to each well consisting of TNF-α (R&D, 10 ng/mL), IL-1b (R&D, 2 ng/mL), IL-6 (R&D, 1000 IU/mL), and PGE1 (R&D, 1 μg/mL). After 24 h, the cells were centrifuged, washed in PBS and analyzed by flow cytometry for mCherry fluorescence. Gating analysis was performed using CytExpert software.

[3] = for % of main lipid peak to To: 1% H2O2/100 μM Fe(III)Cl, 37° C.
Protocol: The aim of this studies was to compare stability of ionizable cationic lipids under accelerated oxidation.
Prior to the experiment, 75 μl of a lipid stock was mixed with 75 μl of ultra-pure water (Rx Biosciences, cat #P01-UPW02-1000) to make 0.5 mM of cationic lipids and 5 mM of linoleic acid respectively. A combined stock in water of 10% H2O2 (Sigma-Aldrich, cat #H1009) and 1 mM of Fe(III)Cl (Sigma-Aldrich, cat #372870) was freshly by prepared prior to the experiment. To make 1% final concentration of H2O2 and 100 μM Fe(III)Cl, 15 μl of 10% H2O2/1 mM Fe(III)C1 stock was added to 135 μl of individual lipids The liposomes and individual lipids were incubated with H2O2/Fe(III)C1 at 37° C. and then 5 μl from each sample was taken at different time points (0, 24, 48, 72 and 96 hours) and dissolved in 90 μl of MeOH for HPLC analysis. Degradation of the main lipid peak was analyzed using Thermo Scientific Vanquish Flex UHPLC occupied with Charged Aerosol Detector (CAD) and Phenomenex™ Kinetex C8 column (L=150 mm, D=2.1 mm, Particle Size=1.7 μm, 100 A).
The data are presented as a percentage of the main lipid peak measured at different time points relative to the lipid peak measured at time zero.

[4] = Apparent solubility of phosphatidylserine salts in ethanol (shake flask); type: physicochemical; conditions: for Solubility, mM phosphatidylserine: 100% ethanol at room temperature, 24 hours, average±SD (N=3)
Protocol: Apparent solubilities of phosphatidylserine salts in ethanol were determined by shake flask technique. Sodium and ammonium salts of phosphatidylserines in the powder form were obtained from Avanti Polar Lipids (Alabama, USA). Aliquots of phosphatidylserine salt powder were placed in 12×75 borosilicate glass tubes in triplicate. Three mL of 200 proof ethanol (catalog number E-7023, MilliporeSigma, USA) were added, the tubes were closed with polyethylene snap caps, agitated using vortex mixer for 10-15 s to obtain uniform suspensions, and placed in a horizontal position on a rocking platform at room temperature (20-22° C.) overnight. The ambient temperature at the end of incubation was 20.4-20.9° C. After 24 hours incubation, the suspensions were visually checked for the presence of a solid phase, allowed to settle under gravity, and the supernatant solutions were passed through a 0.2-μm PTFE syringe membrane filters. The first 0.5 ml of the filtrate was discarded, the next 1 ml was collected, and phosphatidylserine in the filtrates was quantified by phospholipid phosphate assay as follows: 20 μL aliquots of the filtrate were taken in triplicate into glass tubes, ethanol was evaporated in a stream of argon at 70° C., and the residue was digested in a mixture of 60 μL concentrated sulfuric acid and 20 μL 30% hydrogen peroxide for 10 min at 180-190° C. The digested samples were diluted with 1 mL of deionized water, 20 μL of 10% sodium sulfite was added to destroy any residual peroxide, and the samples were incubated on a boiling water bath for 15 min to hydrolyze any condensed phosphate species. The samples were chilled down to room temperature, mixed with 0.2 mL of 2% (w/w) ammonium molybdate solution and 20 μL of 10% (w/w) ascorbic acid solution, incubated on a boiling water bath for 10 min, and chilled down in a water bath at room temperature. The phosphate concentration was determined from the optical density of the formed blue phosphomolybdic acid at 825 nm using five-point standard curve from concurrently run standards prepared from the NIST-traceable commercial phosphate standard solution diluted to cover the range of 0-2 mM phosphate (coefficient of determination R^2 >0.9999). Solubility of phosphatidylserine salts was expressed in molarity units of phosphatidylserine (Table 40). The data are average±SD (N=3).

[5] = tested on: TLR7/8; experiment: In vivo inflammatory profile of UUGU oligoribonucleotides in LNP formulations using different ICLs (Example 28; serum and dLNs); set-up: species or system mice; conditions: 1 ug UUGU dose
Source text: Blood and dLNs (pooled iliac, popliteal and inguinal LNs) were harvested 6 hrs post-injection. […] No. 740622). LNs were weighed prior to lysis, and analyte concentrations were converted from pg/mL to pg/mg of tissue mass. […] The analyte concentrations in the blood serum are reported in Table 68 and the mean fold changes over vehicle treatment are shown in Table 69. The analyte concentrations in the dLNs are reported in Table 70 and the mean fold changes over vehicle treatment are shown in Table 71. The primary aim of this study was to examine the effect of various ionizable cationic lipids (ICLs) on the delivery of a UUGU oligoribonucleotide to TLR7/8 located intracellularly in endolysosomal compartments. We also sought to determine whether PS-targeting of LNPs influenced activity. […] UUGU oligos were encapsulated in LNPs formulated with KC-OA family ICLs, AKG-UO-DM2, DODMA, or DODAP. We also tested the ALC-0315 and SM-102 LNP formulations. The effect of PS targeting on biological activity was also assessed using either DOPS or DPPS formats.

[6] = tested on: TLR9; experiment: In vivo inflammatory profile of CpG-ODN 1018 in LNP formulations with various ICLs (Example 27; serum and dLNs); set-up: species or system BALB/c mice; conditions: 1 μg dose CpG
[7] = Semple et al., (2010) Nature Biotech. 28 (2) 172-176; cited from earlier work

SMILES: CCCCCCCC/C=C\CCCCCCCC(=O)OC[C@H](CCCN(C)C)OC(=O)CCCCCCC/C=C\CCCCCCCC [AKG-OA-DM3, (S)-5-(dimethylamino)pentane-1,2-diyl dioleate]
- mRNA endosomal escape and translation / mRNA transfection [1]: relatively poor for mRNA transfection

SMILES: CCCCCCCC/C=C\CCCCCCCC1(CCCCCCC/C=C\CCCCCCCC)OC[C@H](CCCN(C)C)O1 [KC3-17 (C8:1), 3-((S)-2,2-di((Z)-heptadec-8-en-1-yl)-1,3-dioxolan-4-yl)-N,N-dimethylpropan-1-amine]
- transfection activity when incorporated into LNPs [2]: highest activity
- transfection activity when incorporated into LNPs [1]: highest activity
- % of main lipid peak to To ([3]; 24 h): 66.1 ± 0.6%
- % of main lipid peak to To ([3]; 48 h): 58.4 ± 1.5%
- % of main lipid peak to To ([3]; 72 h): 45.9 ± 4.7%

SMILES: CCCCCCCC/C=C\CCCCCCCCC1(CCCCCCCC/C=C\CCCCCCCC)OC[C@H](CCN(C)C)O1 [KC2-OA, 2-((S)-2,2-di((Z)-octadec-9-en-1-yl)-1,3-dioxolan-4-yl)-N,N-dimethylethan-1-amine]
- mRNA endosomal escape and translation / mRNA transfection [1]: relatively efficient

SMILES: CCCCCCCCCCCCCCCCCC(=O)OC[C@H](COP(=O)(O)OC[C@H](N)C(=O)O)OC(=O)CCCCCCCCCCCCCCCCC.N [DSPS ammonium]
- Solubility, mM phosphatidylserine [4]: 0.034 ± 0.004 mM

SMILES: CCCCCCCC/C=C\CCCCCCCC(=O)OC[C@H](CCN(C)C)OC(=O)CCCCCCC/C=C\CCCCCCCC [AKG-OA-DM2, (S)-4-(dimethylamino)butane-1,2-diyl dioleate]
- induction of a proinflammatory signature by UUGU LNPs by ICL [5]: most potent LNP adjuvant formulation
- induction of a proinflammatory signature by UUGU LNPs by ICL ([5]; listed as AKG-UO-DM2): most efficient
- levels of IL-12p70 and type I IFN-α in the blood and dLNs [6]: highest levels
- mRNA endosomal escape and translation / mRNA transfection [1]: relatively poor for mRNA transfection

SMILES: CCCCC/C=C\C/C=C\CCCCCCCCC1(CCCCCCCC/C=C\C/C=C\CCCCC)OCC(CCCN(C)C)O1 (stereo not drawn) [KC3, reference compound]
- degradation relative to other cationic lipids under the forced oxidation with H2O2 [3]: fastest degradation
- % of main lipid peak to To ([3]; 24 h): 11.2 ± 1.0%
- % of main lipid peak to To ([3]; 48 h): 10.5 ± 0.5%
- % of main lipid peak to To ([3]; 72 h): 0 ± 0%

SMILES: CCCCCCCCCCCCCCCCCC1(CCCCCCCCCCCCCCCCC)OC[C@H](CCCN(C)C)O1 [KC3-17, (S)-3-(2,2-diheptadecyl-1,3-dioxolan-4-yl)-N,N-dimethylpropan-1-amine]
- transfection activity when incorporated into LNPs [1]: completely inactive
- % of main lipid peak to To ([3]; 24 h): 92.9 ± 0.3%
- % of main lipid peak to To ([3]; 48 h): 91.8 ± 1.2%
- % of main lipid peak to To ([3]; 72 h): 90.2 ± 1.2%

SMILES: CCCCCCCCCCCCCCCCCC(=O)OC[C@H](COP(=O)(O)OC[C@H](N)C(=O)[O-])OC(=O)CCCCCCCCCCCCCCCCC.[Na+] [DSPS sodium]
- Solubility, mM phosphatidylserine [4]: 0.111 ± 0.009 mM

SMILES: CCCCC/C=C\CCCC/C=C\CCCCCC1(CCCCC/C=C\CCCC/C=C\CCCCC)OC[C@H](CCCN(C)C)O1 [KC3-01, 3-((S)-2,2-di((6Z,12Z)-octadeca-6,12-dien-1-yl)-1,3-dioxolan-4-yl)-N,N-dimethylpropan-1-amine]
- transfection activity when incorporated into LNPs [2]: highest activity

SMILES: CCCCC/C=C\C/C=C\CCCCCCCCC1(CCCCCCCC/C=C\C/C=C\CCCCC)OCC(CCN(C)C)O1 (stereo not drawn) [KC2]
- activity of KC2 compared to KC3 [7]: 6 fold

SMILES: CCCCCCCCCCCCCCCC(=O)OC[C@H](COP(=O)(O)OC[C@H](N)C(=O)[O-])OC(=O)CCCCCCCCCCCCCCC.[Na+] [DPPS sodium]
- Solubility, mM phosphatidylserine [4]: 0.201 ± 0.004 mM

SMILES: CCCCCCCC/C=C\CCCCCCCCC1(CCCCCCCC/C=C\CCCCCCCC)OCC(CCCCN(C)C)O1 (racemic) [KC4-OA, 4-rac-2,2-di((Z)-octadec-9-en-1-yl)-1,3-dioxolan-4-yl)-N,N-dimethylbutan-1-amine]
- mRNA endosomal escape and translation / mRNA transfection [1]: relatively efficient

SMILES: CCCCCCCCCCCCCCCC(=O)OC[C@H](COP(=O)(O)OC[C@H](N)C(=O)O)OC(=O)CCCCCCCCCCCCCCC.N [DPPS ammonium]
- ethanol solubility compared to ammonium salt of DSPS or the sodium salts [4]: several-fold higher
- Solubility, mM phosphatidylserine [4]: 0.865 ± 0.060 mM

SMILES: CCCCCCCC/C=C\CCCCCCCCOC[C@H](CN(C)C)OCCCCCCCC/C=C\CCCCCCCC [DODMA, reference compound]
- induction of a proinflammatory signature by UUGU LNPs by ICL [5]: most efficient

SMILES: CCCCCC/C=C\CCCCCCCCC1(CCCCCCCC/C=C\CCCCCC)OC[C@H](CCCN(C)C)O1 [KC3-PA, 3-((S)-2,2-di((Z)-hexadec-9-en-1-yl)-1,3-dioxolan-4-yl)-N,N-dimethylpropan-1-amine]
- transfection activity when incorporated into LNPs [2]: highest activity
- % of main lipid peak to To ([3]; 24 h): 62.7 ± 0.1%
- % of main lipid peak to To ([3]; 48 h): 59.2 ± 0.8%
- % of main lipid peak to To ([3]; 72 h): 60.2 ± 0.6%

SMILES: CCCCCCCC/C=C\CCCCCCCCC1(CCCCCCCC/C=C\CCCCCCCC)OC[C@H](CCCN(C)C)O1 [KC3-OA, 3-((S)-2,2-di((Z)-octadec-9-en-1-yl)-1,3-dioxolan-4-yl)-N,N-dimethylpropan-1-amine]
- induction of a proinflammatory signature by UUGU LNPs by ICL [5]: most efficient
- transfection activity when incorporated into LNPs [2]: highest activity
- mRNA endosomal escape and translation / mRNA transfection [1]: relatively efficient
- transfection activity when incorporated into LNPs [1]: highest activity
- % of main lipid peak to To ([3]; 24 h): 88.9 ± 0.5%
- % of main lipid peak to To ([3]; 48 h): 84.6 ± 0.9%
- % of main lipid peak to To ([3]; 72 h): 79.0 ± 0.1%
